This is an account of results in ChEMBL document CHEMBL2429756, “Synthesis, docking, and in vitro studies of some substituted bischalcones on acid and alkaline phosphatases” (Med Chem Res, 2013).

A short description of experiment [1]: Competitive inhibition of goat liver alkaline phosphatase assessed as residual activity using p-nitrophenyl phosphate as substrate by Lineweaver-Burk plot analysis. The arrangement: species or system Capra hircus.
The species entered for experiment [2] is Capra hircus. Nature of the experiment: Inhibition of goat liver alkaline phosphatase assessed as residual activity using p-nitrophenyl phosphate as substrate at 1 mM after 30 mins relative to control.
The species named for experiment [3] is Capra hircus. Nature of the experiment: Inhibition of goat liver acid phosphatase assessed as residual activity using p-nitrophenyl phosphate as substrate at 1 mM after 30 mins relative to control.
Experiment [4] can be described thus: Non-competitive inhibition of goat liver alkaline phosphatase assessed as residual activity using p-nitrophenyl phosphate as substrate by Lineweaver-Burk plot analysis. The arrangement: species or system Capra hircus.

Structures are written as SMILES.

Turning to `O=C1/C(=C/c2ccc(F)cc2)CCC/C1=C\c1ccc(F)cc1`, the Ki in experiment [1] came to 1090 µM. Moreover, the values for the Activity in experiment [2] and in experiment [3] were 57.8% and 140%, respectively.

For `COc1ccc(/C=C2\CCC/C(=C\c3ccc(OC)cc3)C2=O)cc1`, the inhibition constant (Ki) in experiment [1] worked out at 389 µM. Further, the Activity in experiment [2] amounted to 31.7%; in experiment [3] it was 158%.

With `O=C1/C(=C/C=C/c2ccccc2)CCC/C1=C\C=C\c1ccccc1`, the Ki in experiment [4] was determined as 441 µM. The Activity in experiment [2] is 30.8%; in experiment [3], 129%.

Turning to `O=C1/C(=C/c2ccc(Cl)cc2)CCC/C1=C\c1ccc(Cl)cc1`, the inhibition constant (Ki) in experiment [1] was found to be 670 µM. Also, the Activity in experiment [2] turned out to be 46.2%; in experiment [3], 129%.

As to `CN(C)c1ccc(/C=C2\CCC/C(=C\c3ccc(N(C)C)cc3)C2=O)cc1`, the inhibition constant Ki in experiment [1] amounted to 470 µM. Also, the Activity in experiment [2] came to 40.2%; in experiment [3], 113%.

For the compound `c1ccc([C@H]2CN3CCSC3=N2)cc1` [LEVAMISOLE], in experiment [1], the Ki amounted to 4000 µM. In addition, the Activity in experiment [2] worked out at 88%.

As to `Cc1ccc(/C=C2\CCC/C(=C\c3ccc(C)cc3)C2=O)cc1`, in experiment [4], the inhibition constant Ki worked out at 845 µM. Further, the results for the Activity in experiment [2] and in experiment [3] were 46% and 149%, respectively.

On to `O=C1/C(=C/c2ccc([N+](=O)[O-])cc2)CCC/C1=C\c1ccc([N+](=O)[O-])cc1`, for which, in experiment [1], the Ki stood at 250 µM. Moreover, the values for the Activity in experiment [2] and in experiment [3] were 26% and 133%, respectively.

For the compound `O=C1/C(=C/c2ccccc2)CCC/C1=C\c1ccccc1` [2,6-DIBENZYLIDENECYCLOHEXANONE], the Ki in experiment [1] was 470 µM. The Activity in experiment [2] was 41.2%; in experiment [3] it was 121%.

`O=C1/C(=C/c2ccc(Br)cc2)CCC/C1=C\c1ccc(Br)cc1`: the inhibition constant (Ki) in experiment [1] stood at 565 µM. Also, the Activity in experiment [2] amounted to 43.5%; in experiment [3] it was 127%.

Broadly, the Ki is a measure of affinity in units of concentration, obtained from inhibition or displacement.
